Source: patent US8288375B2, “Fungicidal bicyclic pyrazoles” (E.I. du Pont de Nemours and Company, priority 2007, dated 2012)
Marks after values point to notes of the source that are not given here.

Legend:
Type in all cases: in vivo
[1] = system: Botrytis cinerea; assay: Test H: tomato Botrytis, test suspension sprayed on tomato seedlings, disease rating; settings: 200 ppm test suspension
[2] = system: Rhizoctonia oryzae; assay: Test I: turf brown patch, test suspension sprayed on creeping bent grass seedlings, disease rating; settings: 200 ppm test suspension
[3] = system: Phytophthora infestans; assay: whole plant or invertebrate
[4] = system: Erysiphe graminis f. sp. tritici; assay: Test A: wheat powdery mildew, test suspension sprayed on wheat seedlings, disease rating; settings: 200 ppm test suspension, 100 = 100% disease control, 0 = no control; for pest or weed control at 200 ppm: Blumeria graminis, 192 h
[5] = system: Septoria nodorum; assay: Test D: wheat glume blotch, test suspension sprayed on wheat seedlings, disease rating; settings: 200 ppm test suspension; for pest or weed control at 200 ppm: Parastagonospora nodorum, 216 h
[6] = system: Alternaria solani; assay: Test G: tomato early blight, test suspension sprayed on seedlings, disease rating;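 note: 200 ppm unless marked * meaning 40 ppm or ** meaning 10 ppm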
[7] = system: Colletotrichum orbiculare; assay: Test F: cucumber Colletotrichum anthracnose, test suspension sprayed on cucumber seedlings, disease rating
[8] = system: Septoria tritici; assay: Test E: wheat leaf blotch, test suspension sprayed on wheat seedlings, disease rating;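 note: 200 ppm unless marked * meaning 40 ppm or ** meaning 10 ppm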
[9] = system: Fusarium graminearum; assay: whole plant or invertebrate; settings: for pest or weed control at 40 ppm: Fusarium graminearum, in Triticum aestivum, 192 h, read-out: Test C disease control rating
[10] = system: Pythium aphanidermatum; assay: Test L: bluegrass pythium blight, test suspension sprayed on bluegrass seedlings, disease rating;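 note: 200 ppm unless marked * meaning 40 ppm or ** meaning 10 ppm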
[11] = system: Puccinia recondite f sp. tritici; assay: Test B: wheat leaf rust, test suspension sprayed on wheat seedlings, disease rating; settings: for pest or weed control at 40 ppm: Puccinia, 192 h;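 for all read-outs here: 200 ppm unless marked * meaning 40 ppm or ** meaning 10 ppm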
[12] = Phytophthora infestans, in Solanum lycopersicum, 120 h, read-out: Test J disease control rating

Row | Compound | Test H disease control rating [1] [%] | Test I disease control rating [2] [%] | Test A disease control rating [4] [%] | Test D disease control rating [5] [%] | Test G disease control rating ([6]; 40 ppm test suspension (*)) | Test F disease control rating ([7]; 200 ppm test suspension) [%] | Test E disease control rating ([8]; 200 ppm test suspension) [%] | Test B disease control rating ([11]; 200 ppm test suspension) [%] | Test J disease control rating ([3]; 40 ppm test suspension (*)) | Test E disease control rating ([8]; 40 ppm test suspension (*)) | Test C disease control rating ([9]; 40 ppm test suspension (*)) | Test L disease control rating ([10]; 40 ppm test suspension (*)) | Test B disease control rating ([11]; 40 ppm test suspension (*)) | also measured
1 | CC(CO)Nc1nccc(-c2c(-c3ccc(F)cc3)nn3c2CCCC3)n1 (stereo not drawn) [Compound 5, 2-[[4-[2-(4-fluorophenyl)-4,5,6,7-tetrahydropyrazolo[5,1-a]pyridin-3-yl]-2-pyrimidinyl]amino]-1-propanol] | 99 | 0 | 96 | 97 | 98* % | 99 | 97 | 100 |  |  |  |  |  | Test J disease control rating ([3]; 200 ppm test suspension): 99%; Test C disease control rating ([9]; 200 ppm test suspension): 100%; Test L disease control rating ([10]; 200 ppm test suspension): 100%
2 | c1ccc(-c2nn3c(c2-c2ccnc(NC4CC4)n2)CCCC3)cc1 [Compound 27, N-cyclopropyl-4-(4,5,6,7-tetrahydro-2-phenylpyrazolo[1,5-a]pyridin-3-yl)-2-pyrimidinamine] |  |  |  |  |  |  |  |  |  |  |  |  |  | pest or weed control at 200 ppm [3, 12]: 97%; pest or weed control at 200 ppm [4]: 96%; pest or weed control at 200 ppm [5]: 98%; pest or weed control at 10 ppm ([6]; Alternaria solani, 168 h, 10 ppm test suspension (**)): 95%; pest or weed control at 10 ppm ([7]; Colletotrichum orbiculare, 144 h, 10 ppm test suspension (**)): 66%; pest or weed control at 200 ppm ([8]; Zymoseptoria tritici, 504 h, 200 ppm test suspension): 97%; pest or weed control at 40 ppm [9]: 99%; pest or weed control at 200 ppm ([10]; Pythium aphanidermatum, 120 h, 200 ppm test suspension): 98%; pest or weed control at 40 ppm ([11]; 40 ppm test suspension (*)): 95%
3 | CC(=O)N1CCn2nc(-c3ccc(F)cc3)c(-c3ccnc(NC(C)C)n3)c2C1 [Compound 130] | 34 | 0 | 86 | 97 | 58* % | 0 |  |  | 100* % | 97* % | 0* % | 100* % | 92* % | 
4 | CC(C)Nc1nccc(-c2c(-c3ccc(F)cc3)nn3c2CNCC3)n1.Cl [Compound 133] | 0 | 0 | 0 | 0 | 0* % | 98 |  |  | 73* % | 0* % | 42* % | 99* % | 19* % | 
5 | CN1CCCc2c(-c3ccnc(NC4CC4)n3)c(-c3ccc(F)cc3)nn21 [Compound 135, N-cyclopropyl-4-[2-(4-fluorophenyl)-4,5,6,7-tetrahydro-7-methylpyrazolo[1,5-b]pyridazin-3-yl]-2-pyrimidinamine] |  |  |  |  |  |  |  |  |  |  |  |  |  | pest or weed control at 200 ppm ([1]; Botrytis cinerea, 120 h): 70%; pest or weed control at 200 ppm ([2]; Waitea circinata, in Agrostis stolonifera, 120 h): 0%; pest or weed control at 40 ppm [3, 12]: 70%; pest or weed control at 200 ppm [4]: 95%; pest or weed control at 200 ppm [5]: 89%; pest or weed control at 40 ppm ([6]; Alternaria solani, 168 h, 40 ppm test suspension (*)): 99%; pest or weed control at 200 ppm ([7]; Colletotrichum orbiculare, 144 h, 200 ppm test suspension): 99%; pest or weed control at 40 ppm ([8]; Zymoseptoria tritici, 504 h, 40 ppm test suspension (*)): 90%; pest or weed control at 40 ppm [9]: 84%; pest or weed control at 40 ppm ([11]; 40 ppm test suspension (*)): 61%
6 | CC(=O)N1CCCc2c(-c3ccnc(NC4CCOCC4)n3)c(-c3ccc(F)cc3)nn21 [Compound 139] | 0 | 40 | 73 | 99 | 99* % |  |  |  | 93* % | 29* % | 95* % | 100* % | 90* % | 
7 | CC(CN1C(=O)c2ccccc2C1=O)Nc1nccc(-c2c(-c3ccc(F)cc3)nn3c2CCCC3)n1 (stereo not drawn) [compound 71] | 0 |  | 0 | 64 | 0* % | 0 |  |  | 9* % | 33* % | 0* % | 97* % | 0* % | 
8 | CC(CN(C)C)Nc1nccc(-c2c(-c3ccc(F)cc3)nn3c2CCCC3)n1 (stereo not drawn) [compound 77] | 29 | 0 | 82 | 49 | 0* % | 0 |  |  | 40* % | 0* % | 92* % | 0* % |  | 
9 | Fc1ccc(-c2nn3c(c2-c2ccnc(NCc4ccco4)n2)CCCC3)cc1 [compound 78] | 0 | 0 | 58 | 69 | 0* % | 0 |  |  | 17* % | 60* % | 99* % | 0* % |  | 
10 | Cc1ccc(CNc2nccc(-c3c(-c4ccc(F)cc4)nn4c3CCCC4)n2)o1 [compound 79] | 0 | 0 | 76 | 69 | 0* % | 0 |  |  | 0* % | 93* % | 99* % | 0* % |  | 
11 | Fc1ccc(-c2nn3c(c2-c2ccnc(NCC4CCOCC4)n2)CCCC3)cc1 [compound 80] | 44 | 0 | 82 | 82 | 68* % | 0 |  |  | 33* % | 93* % | 98* % | 0* % |  | 
12 | CC(C)Nc1nccc(-c2c(-c3ccc(F)cc3)nn3c2COCC3)n1.Cl [compound 128] | 89 |  | 0 | 99 | 99* % | 99 |  |  | 100* % | 94* % | 99* % | 100* % | 96* % | 
13 | Fc1ccc(-c2nn3c(c2-c2ccnc(NC4CCOCC4)n2)COCC3)cc1 [compound 129] | 84 | 53 | 0 | 99 | 95* % |  |  |  | 95* % | 81* % | 100* % | 100* % | 98* % | 
14 | CNc1nccc(-c2c(-c3ccccc3)nn3c2CCCC3)n1 [compound 142] | 53 |  | 95 | 98 |  |  | 100 | 100 |  |  |  |  |  | Test G disease control rating ([6]; 200 ppm test suspension): 0%; Test C disease control rating ([9]; 200 ppm test suspension): 97%
15 | CCCNc1nccc(-c2c(-c3ccccc3)nn3c2CCCC3)n1 [compound 179] |  | 89 | 75 | 99 |  |  | 100 | 100 |  |  |  |  |  | Test C disease control rating ([9]; 200 ppm test suspension): 100%
16 | Cc1cccc(-c2nn3c(c2-c2ccnc(NC4CC4)n2)CCCC3)c1 [compound 181] | 94 |  | 97 | 100 |  |  | 100 | 100 |  |  |  |  |  | Test G disease control rating ([6]; 200 ppm test suspension): 99%; Test C disease control rating ([9]; 200 ppm test suspension): 100%
17 | CCCNc1nccc(-c2c(-c3ccccc3)nn3c2COCC3)n1 [compound 184] | 80 |  | 61 | 90 |  |  | 100 | 99 |  |  |  |  |  | Test G disease control rating ([6]; 200 ppm test suspension): 98%; Test C disease control rating ([9]; 200 ppm test suspension): 99%
18 | CCCNc1nccc(-c2c(-c3cccc(C)c3)nn3c2CCCC3)n1 [compound 185] | 99 |  | 74 | 99 |  |  | 97 | 97 |  |  |  |  |  | Test G disease control rating ([6]; 200 ppm test suspension): 95%
19 | CCNc1nccc(-c2c(-c3cccc(C)c3)nn3c2CCCC3)n1 [compound 186] | 99 |  | 79 | 99 |  |  | 95 | 99 |  |  |  |  |  | Test G disease control rating ([6]; 200 ppm test suspension): 99%
